In assay [1] the target is DNA-3-methyladenine glycosylase (Homo sapiens) (UniProt P29372). Particulars: Compound Concentration 10.0 uM, Hit No.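 Further: enzyme assay where MPG cuts a quenched duplex DNA oligonucleotide probe, paired with APE1 for strand incision and turnover, read as fluorescence at 594 nm.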
Description: Inhibition of MPG by quantifying inhibition of MPG-mediated cleavage and dissociation of quenched duplex DNA oligonucleotides, measured as fluorescence at 594 nm. To generate a functional strand incision and increase turn-over this assay is coupled to APE1.
The target in assay [2] is T1, Adenine DNA glycosylase (Homo sapiens) (UniProt Q9UIF7).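 Further: human MUTYH activity read as 594 nm fluorescence from cleavage and release of a quenched DNA duplex, coupled with APE1 for strand incision, lower signal meaning inhibition.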
T1 sequence (whole entry): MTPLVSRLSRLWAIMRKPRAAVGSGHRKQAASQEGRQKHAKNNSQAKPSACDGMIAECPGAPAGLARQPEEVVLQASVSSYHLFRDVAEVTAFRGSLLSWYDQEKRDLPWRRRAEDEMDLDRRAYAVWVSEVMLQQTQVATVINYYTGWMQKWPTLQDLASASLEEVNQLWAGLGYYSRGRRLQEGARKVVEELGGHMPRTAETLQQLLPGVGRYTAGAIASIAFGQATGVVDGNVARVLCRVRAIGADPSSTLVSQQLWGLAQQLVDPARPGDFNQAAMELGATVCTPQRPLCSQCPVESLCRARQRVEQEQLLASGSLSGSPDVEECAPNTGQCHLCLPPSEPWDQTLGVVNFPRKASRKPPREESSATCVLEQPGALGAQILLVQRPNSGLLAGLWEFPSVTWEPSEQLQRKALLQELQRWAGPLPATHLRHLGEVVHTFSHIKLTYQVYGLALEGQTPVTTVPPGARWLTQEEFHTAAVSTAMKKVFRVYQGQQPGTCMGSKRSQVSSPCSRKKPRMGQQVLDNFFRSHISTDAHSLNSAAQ
Particulars: Compound Concentration 10.0 uM, Hit No.
Description: Inhibition of MUTYH by quantifying inhibition of MUTYH-mediated cleavage and dissociation of quenched duplex DNA oligonucleotides, measured as fluorescence at 594 nm. To generate a functional strand incision and increase turn-over this assay is coupled to APE1.

For assay [3], the target named is N-glycosylase/DNA lyase (Homo sapiens) (UniProt O15527). Particulars: Compound Concentration 10.0 uM, Hit No.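 Further: OGG1 cleavage of a quenched duplex DNA oligonucleotide, coupled to APE1 for strand incision, read as fluorescence at 594 nm.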
Sequence of N-glycosylase/DNA lyase (Homo sapiens) (O15527 whole entry): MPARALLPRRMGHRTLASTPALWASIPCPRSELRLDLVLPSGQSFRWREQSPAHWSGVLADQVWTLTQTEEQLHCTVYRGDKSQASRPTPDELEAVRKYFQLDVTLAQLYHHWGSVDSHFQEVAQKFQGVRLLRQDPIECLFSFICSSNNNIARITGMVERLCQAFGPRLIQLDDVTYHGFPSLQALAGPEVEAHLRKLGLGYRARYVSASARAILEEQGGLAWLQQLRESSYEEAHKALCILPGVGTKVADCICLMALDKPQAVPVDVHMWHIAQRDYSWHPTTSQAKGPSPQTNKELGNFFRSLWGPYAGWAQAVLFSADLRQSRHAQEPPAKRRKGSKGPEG
Description: Inhibition of OGG1 by quantifying inhibition of OGG1-mediated cleavage and dissociation of quenched duplex DNA oligonucleotides, measured as fluorescence at 594 nm. To generate a functional strand incision and increase turn-over this assay is coupled to APE1.
Assay [4] addresses T2, Single-strand selective monofunctional uracil DNA glycosylase (Homo sapiens) (UniProt Q53HV7).
T2 sequence (whole entry): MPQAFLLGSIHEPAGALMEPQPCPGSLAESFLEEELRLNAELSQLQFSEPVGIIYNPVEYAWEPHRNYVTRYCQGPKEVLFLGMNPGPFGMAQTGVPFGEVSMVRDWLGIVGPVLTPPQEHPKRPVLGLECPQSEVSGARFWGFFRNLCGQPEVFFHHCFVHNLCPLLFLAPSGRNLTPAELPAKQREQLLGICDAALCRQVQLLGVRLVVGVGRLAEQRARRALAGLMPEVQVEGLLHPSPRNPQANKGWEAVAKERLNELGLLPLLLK
Particulars: Compound Concentration 10.0 uM, Hit No.
Description: Inhibition of SMUG1 by quantifying inhibition of SMUG1-mediated cleavage and dissociation of quenched duplex DNA oligonucleotides, measured as fluorescence at 594 nm. To generate a functional strand incision and increase turn-over this assay is coupled to APE1.

For assay [5], the target named is G/T mismatch-specific thymine DNA glycosylase (Homo sapiens) (UniProt Q13569). As to conditions: Compound Concentration 10.0 uM, Hit No.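 Further: human TDG cleavage of quenched duplex DNA oligonucleotides coupled to APE1, strand release read as fluorescence at 594 nm, inhibition of TDG activity.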
Sequence of G/T mismatch-specific thymine DNA glycosylase (Homo sapiens) (Q13569 whole entry): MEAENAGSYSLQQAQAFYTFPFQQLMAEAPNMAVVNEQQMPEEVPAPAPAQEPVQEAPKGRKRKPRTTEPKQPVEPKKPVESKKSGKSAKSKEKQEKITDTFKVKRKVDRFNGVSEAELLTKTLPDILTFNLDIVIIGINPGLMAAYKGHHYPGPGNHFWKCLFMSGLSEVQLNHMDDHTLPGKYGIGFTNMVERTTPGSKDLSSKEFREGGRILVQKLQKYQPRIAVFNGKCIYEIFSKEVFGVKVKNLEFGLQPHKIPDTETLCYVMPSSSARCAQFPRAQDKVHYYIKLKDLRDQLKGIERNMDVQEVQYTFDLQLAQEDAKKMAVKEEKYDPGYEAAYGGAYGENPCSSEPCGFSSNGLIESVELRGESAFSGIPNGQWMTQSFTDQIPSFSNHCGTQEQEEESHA
Description: Inhibition of TDG by quantifying inhibition of TDG-mediated cleavage and dissociation of quenched duplex DNA oligonucleotides, measured as fluorescence at 594 nm. To generate a functional strand incision and increase turn-over this assay is coupled to APE1.
In assay [6] the target is T3, Endonuclease III-like protein 1 (Homo sapiens) (UniProt P78549).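 Further: enzyme assay tracking NTHL1 cutting and release of a quenched double-stranded DNA oligo substrate, read as fluorescence at 594 nm.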
T3 sequence (whole entry): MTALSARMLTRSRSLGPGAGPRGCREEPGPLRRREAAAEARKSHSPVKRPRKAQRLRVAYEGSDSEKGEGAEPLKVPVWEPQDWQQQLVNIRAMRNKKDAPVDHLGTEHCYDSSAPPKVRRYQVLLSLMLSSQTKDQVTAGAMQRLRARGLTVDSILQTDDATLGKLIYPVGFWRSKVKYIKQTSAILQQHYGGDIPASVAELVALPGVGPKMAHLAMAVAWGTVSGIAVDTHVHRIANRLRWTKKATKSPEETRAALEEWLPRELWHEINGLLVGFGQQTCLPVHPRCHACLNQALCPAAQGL
Particulars: Compound Concentration 10.0 uM, Hit No.
Description: Inhibition of NTHL1 by quantifying inhibition of NTHL1-mediated cleavage and dissociation of quenched duplex DNA oligonucleotides, measured as fluorescence at 594 nm.

In assay [7] the target is Methyl-CpG-binding domain protein 4 (Homo sapiens) (UniProt O95243). As to conditions: Compound Concentration 10.0 uM, Hit No.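 Further: MBD4 activity read as fluorescence at 594 nm from cleavage and release of a quenched duplex DNA oligonucleotide, with APE1 coupled to incise the strand and raise turnover.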
Sequence of Methyl-CpG-binding domain protein 4 (Homo sapiens) (O95243 whole entry, the tested form may be a part): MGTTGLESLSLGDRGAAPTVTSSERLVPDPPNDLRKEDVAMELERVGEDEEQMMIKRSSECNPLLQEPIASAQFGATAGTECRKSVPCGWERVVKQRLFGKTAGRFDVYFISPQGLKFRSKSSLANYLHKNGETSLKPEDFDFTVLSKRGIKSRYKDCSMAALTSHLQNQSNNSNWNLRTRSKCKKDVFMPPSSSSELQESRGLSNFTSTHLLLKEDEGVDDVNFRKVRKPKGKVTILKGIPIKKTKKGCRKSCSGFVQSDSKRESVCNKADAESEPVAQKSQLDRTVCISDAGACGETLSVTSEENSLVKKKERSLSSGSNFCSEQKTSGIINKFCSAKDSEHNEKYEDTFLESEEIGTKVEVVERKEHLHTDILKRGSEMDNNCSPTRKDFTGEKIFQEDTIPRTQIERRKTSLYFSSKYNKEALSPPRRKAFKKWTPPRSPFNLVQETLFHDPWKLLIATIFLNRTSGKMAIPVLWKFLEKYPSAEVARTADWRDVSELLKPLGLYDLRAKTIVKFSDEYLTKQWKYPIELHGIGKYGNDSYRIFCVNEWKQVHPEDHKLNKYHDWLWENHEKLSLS
Description: Inhibition of MBD4 by quantifying inhibition of MBD4-mediated cleavage and dissociation of quenched duplex DNA oligonucleotides, measured as fluorescence at 594 nm. To generate a functional strand incision and increase turn-over this assay is coupled to APE1.
The target of assay [8] is T4, Endonuclease 8-like 2 (Homo sapiens) (UniProt Q969S2).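 Further: fluorescence at 594 nm reports NEIL2 cutting and release of a quenched double-stranded DNA oligo substrate, reduced signal read as inhibition.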
T4 sequence (whole entry): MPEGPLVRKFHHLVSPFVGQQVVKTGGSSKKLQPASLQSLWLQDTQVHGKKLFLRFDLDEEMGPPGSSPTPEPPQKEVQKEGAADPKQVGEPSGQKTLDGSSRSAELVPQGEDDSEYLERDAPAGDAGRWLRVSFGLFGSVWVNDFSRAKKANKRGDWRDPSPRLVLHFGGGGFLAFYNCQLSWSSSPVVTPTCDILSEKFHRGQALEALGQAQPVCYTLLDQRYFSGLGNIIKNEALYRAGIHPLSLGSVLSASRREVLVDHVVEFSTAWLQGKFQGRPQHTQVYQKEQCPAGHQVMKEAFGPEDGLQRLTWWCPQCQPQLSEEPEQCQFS
Particulars: Compound Concentration 10.0 uM, Hit No.
Description: Inhibition of NEIL2 by quantifying inhibition of NEIL2-mediated cleavage and dissociation of quenched duplex DNA oligonucleotides, measured as fluorescence at 594 nm.

Assay [9] deals with Endonuclease 8-like 1 (Homo sapiens) (UniProt Q96FI4). As to conditions: Compound Concentration 10.0 uM, Hit No.
Sequence of Endonuclease 8-like 1 (Homo sapiens) (Q96FI4 whole entry): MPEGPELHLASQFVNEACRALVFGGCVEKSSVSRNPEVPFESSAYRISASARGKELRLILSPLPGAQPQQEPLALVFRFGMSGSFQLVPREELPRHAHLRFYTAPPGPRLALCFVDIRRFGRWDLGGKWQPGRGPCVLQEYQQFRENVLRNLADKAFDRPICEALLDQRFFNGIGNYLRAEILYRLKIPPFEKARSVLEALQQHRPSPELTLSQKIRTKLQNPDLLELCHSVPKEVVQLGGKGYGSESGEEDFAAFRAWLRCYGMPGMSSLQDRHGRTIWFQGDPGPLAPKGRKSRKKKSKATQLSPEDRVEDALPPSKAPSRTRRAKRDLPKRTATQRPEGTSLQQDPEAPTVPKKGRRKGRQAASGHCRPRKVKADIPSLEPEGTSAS
Description: Inhibition of NEIL1 by quantifying inhibition of NEIL1-mediated cleavage and dissociation of quenched duplex DNA oligonucleotides, measured as fluorescence at 594 nm.
The target of assay [10] is Uracil-DNA glycosylase (Homo sapiens) (UniProt P13051). Particulars: Compound Concentration 10.0 uM.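 Further: UNG excision on a quenched double-stranded DNA oligo probe, with APE1 added for strand incision and turnover, read as fluorescence at 594 nm as strands separate.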
Sequence of Uracil-DNA glycosylase (Homo sapiens) (P13051 whole entry): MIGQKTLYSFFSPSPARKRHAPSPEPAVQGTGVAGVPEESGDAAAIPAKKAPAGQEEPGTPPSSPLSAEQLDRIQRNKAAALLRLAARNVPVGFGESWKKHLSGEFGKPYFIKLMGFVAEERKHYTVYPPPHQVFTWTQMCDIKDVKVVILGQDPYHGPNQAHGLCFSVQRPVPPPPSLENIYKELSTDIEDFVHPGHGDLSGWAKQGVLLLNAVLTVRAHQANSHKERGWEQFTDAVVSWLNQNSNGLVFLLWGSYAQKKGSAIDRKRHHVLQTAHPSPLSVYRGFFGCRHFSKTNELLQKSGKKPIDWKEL
Description: Inhibition of UNG by quantifying inhibition of UNG-mediated cleavage and dissociation of quenched duplex DNA oligonucleotides, measured as fluorescence at 594 nm. To generate a functional strand incision and increase turn-over this assay is coupled to APE1.

Sequence of DNA-3-methyladenine glycosylase (Homo sapiens) (P29372 whole entry): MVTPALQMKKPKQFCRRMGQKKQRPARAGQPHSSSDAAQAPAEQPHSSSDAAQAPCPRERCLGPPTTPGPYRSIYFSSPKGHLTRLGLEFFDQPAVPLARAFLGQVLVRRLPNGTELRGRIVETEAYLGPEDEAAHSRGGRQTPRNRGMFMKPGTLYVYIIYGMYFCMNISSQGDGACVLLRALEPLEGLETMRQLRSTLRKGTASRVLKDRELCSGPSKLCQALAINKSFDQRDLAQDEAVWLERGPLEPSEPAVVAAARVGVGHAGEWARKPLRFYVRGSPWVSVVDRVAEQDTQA

Broadly, the inhibition is the relative decrease from the control value, in per cent. As for `COc1cc(NC(=O)CCN2CCC(OC(=O)Nc3ccccc3-c3ccccc3)CC2)c(Cl)cc1CNC[C@H](O)c1ccc(O)c2[nH]c(=O)ccc12`, the inhibition was 7.51% in [1]; 11.4% in [2]; -7.57% in assay [3]; 0.984% in assay [4]; 16.7% in assay [5]; 9.99% in assay [6]. The inhibition is -6.36% in [7], -2.98% in assay [8], -7.76% in assay [9] and -5.99% in [10] (Hit No).
As to `COc1c(C(=O)/C=C/c2ccccc2)c(O)c(OC)c2occc12`, the inhibition in assay [1] was 7.88%; in assay [2] it was 19.8%; in assay [3] it was 0.34%; in [4] it was 3.49%; in [5], 11%; in assay [6], 20.4%. The inhibition in assay [7] is 19.3%; in assay [8], -3.15%; in assay [9] it was -0.435%; in [10] (Hit No) it was -2.63%.
For the compound `CCOC(=O)C1=C(C)NC(C)=C(C(=O)OC)C1c1cccc([N+](=O)[O-])c1` (stereo not given), the inhibition in assay [1] was 2.85%; in assay [2], -7.47%; in [3] it was -2.89%; in assay [4] it was 2.81%; in [5], 1.01%; in assay [6], 12.9%. Moreover, the inhibition is -5.63% in assay [7], -2.39% in assay [8], 1.49% in assay [9] and -2.15% in assay [10] (Hit No).
Regarding `CCn1cc(-c2ccnc3[nH]c(-c4cccc(CN(C)C)c4)cc23)c(-c2ccc(NC(=O)N(C)C)cc2)n1`, the inhibition in assay [1] is 62.9%; in assay [2], 78.6%; in assay [3] it was 14.9%; in assay [4] it was 24.3%; in assay [5], 49%; in [6], 2.18%. Further, the inhibition was 22.5% in [7], 23.1% in [8], -6.47% in [9] and 25% in assay [10] (Hit Yes).
On to `O=C(O)Cn1c(C(=O)Nc2nc(-c3ccccc3Cl)cs2)cc2ccccc21`, for which the inhibition in [1] is 17.4%; in assay [2], 40.1%; in [3], 6.47%; in [4] it was 5.06%; in [5], 39.6%; in assay [6], -9.07%. In addition, the inhibition in assay [7] was 38.1%; in assay [8] it was 0.265%; in [9] it was -4.5%; in assay [10] (Hit No), -4.79%.
For `FC(F)(F)c1ccc(Nc2ncnc3cc(-c4ncccc4C(F)(F)F)ccc23)cc1`, the inhibition in [1] was 12.8%; in assay [2], 26.4%; in assay [3], 5.12%; in assay [4] it was 19.7%; in assay [5], 25%; in assay [6], -4.39%. Further, the inhibition in assay [7] was 18.4%; in assay [8], 2.71%; in assay [9], 11.7%; in [10] (Hit No), 1.01%.
For `COCCOCCn1nc2c(c1C)-c1c(Cl)ccc3c1c(C)c(C(=O)O)n3CCCOc1cc(cc3c(F)c(Cl)ccc13)CCc1cc(nn1C)CSC2`, the inhibition in assay [1] is 52.2%; in [2] it was 36%; in assay [3], 28.8%; in [4], 17.3%; in assay [5] it was 59.9%; in assay [6], -0.959%. The inhibition in assay [7] was 77.7%; in assay [8] it was 5.63%; in assay [9], -6.35%; in [10] (Hit No) it was 9.88%.
As for `COc1ccccc1N1CCN(C[C@@H](C(=O)NC(C)(C)C)c2ccccc2)CC1`, the inhibition in assay [1] was 15.3%; in assay [2] it was -2.23%; in assay [3], -6.28%; in [4], 7.78%; in assay [5] it was 24.3%; in assay [6] it was 17.1%. Moreover, the inhibition in assay [7] was 17.7%; in assay [8], -2.13%; in assay [9] it was 15.4%; in assay [10] (Hit No) it was -2.81%.
With `CC(C)c1noc(N2CCC(COc3ccc(-c4ccc(S(C)(=O)=O)cc4)nc3)CC2)n1`, the inhibition in assay [1] was -8.23%; in assay [2] it was 18.2%; in assay [3], 3.18%; in [4], -6.43%; in assay [5], 3%; in assay [6] it was -6.14%. Further, the inhibition in assay [7] is -9.32%; in assay [8] it was 5.01%; in assay [9], 10.9%; in assay [10] (Hit No) it was -6.54%.
Regarding `O=[N+]([O-])c1ccc(CN2CCOCCOCCN(Cc3ccc([N+](=O)[O-])cc3)CCOCC2)cc1`, the inhibition in [1] was 31.4%; in [2], 3.42%; in assay [3], -5.46%; in [4], -2.67%; in assay [5], -1.51%; in assay [6] it was 23.7%. The inhibition in assay [7] was 13.5%; in assay [8], -0.35%; in assay [9], -2.36%; in [10] (Hit No), -6.52%.
Turning to `COC[C@H](O)Cn1c(=O)cnn(-c2ccc(Cl)c(C(=O)NCC3(O)CCCCCC3)c2)c1=O`, the inhibition in assay [1] was 19.8%; in [2] it was 7.26%; in assay [3] it was -7.67%; in assay [4] it was -5.5%; in [5] it was 9.08%; in assay [6], -8.51%. The inhibition in assay [7] is 2.28%; in assay [8] it was -2.64%; in assay [9], 1.64%; in assay [10] (Hit No), -3.13%.
For the compound `O=C(O)c1ccc(S(=O)(=O)N(Cc2ccc(OC(F)(F)F)cc2)c2ncc(C(F)(F)F)cc2Cl)cc1`, the inhibition was determined as 12.7% in assay [1]; 61.2% in assay [2]; 15.6% in [3]; 2.42% in assay [4]; 35% in assay [5]; 14.6% in assay [6]. Further, the inhibition in assay [7] is 39.2%; in assay [8] it was 14.4%; in assay [9], 11.7%; in assay [10] (Hit No), 2.72%.
In the case of `COc1ccc2cc(S(=O)(=O)N[C@H](CC(=O)N[C@H](Cc3ccc(CN4[C@H](C)CCC[C@@H]4C)cc3)C(=O)N(C)C(C)C)c3ccc4c(c3)OCO4)ccc2c1`, the inhibition in assay [1] is 30%; in [2], -1.26%; in assay [3], -6.96%; in assay [4], -5.31%; in assay [5] it was 44.9%; in assay [6], 7.79%. For the same compound, the inhibition in assay [7] amounted to 19.6%; in assay [8], 10.8%; in [9] it was 12.6%; in [10] (Hit No) it was 3.72%.
As to `CC[C@H]1[C@@H](O)[C@@H]2[C@H](CC[C@]3(C)[C@@H]([C@H](C)CCC(=O)O)CC[C@@H]23)[C@@]2(C)CC[C@@H](O)C[C@@H]12`, the inhibition in assay [1] turned out to be 17.5%; in assay [2] it was 24.4%; in [3], 26.2%; in [4] it was 27.8%; in assay [5], 67.3%; in assay [6], 1.34%. The inhibition was 77.2% in assay [7], 1.55% in assay [8], 1.53% in [9] and 5.49% in assay [10] (Hit No).
